Measurements taken from ChEMBL document CHEMBL1135876, “N-alkylaminoacids and their derivatives interact with melanocortin receptors” (Bioorg Med Chem Lett, 2002).

What was measured:
Melanocortin receptor 5 [1] = target: T1, Melanocortin receptor 5 (Homo sapiens, UniProt P33032); test: Binding affinity in competition with [125I]NDP-MSH on recombinant melanocortin 5 receptor
Melanocortin receptor 3 = Melanocortin receptor 3 (Homo sapiens, UniProt P41968); test: Binding affinity in competition with [125I]NDP-MSH on recombinant melanocortin 3 receptor
Melanocortin receptor 3, sequence (P41968 whole entry): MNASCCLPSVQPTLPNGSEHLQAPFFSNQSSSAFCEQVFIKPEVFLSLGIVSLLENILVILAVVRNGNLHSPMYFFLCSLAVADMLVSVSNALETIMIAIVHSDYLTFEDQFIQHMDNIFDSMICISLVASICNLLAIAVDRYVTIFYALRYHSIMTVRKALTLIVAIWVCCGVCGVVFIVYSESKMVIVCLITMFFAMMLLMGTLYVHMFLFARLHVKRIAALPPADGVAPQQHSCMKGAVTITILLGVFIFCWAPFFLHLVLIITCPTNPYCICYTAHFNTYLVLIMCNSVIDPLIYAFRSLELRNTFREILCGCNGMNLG

Melanocortin receptor 4 = Melanocortin receptor 4 (Homo sapiens, UniProt P32245); test: Binding affinity in competition with [125I]NDP-MSH on recombinant melanocortin 4 receptor
Melanocortin receptor 4, sequence (P32245 whole entry): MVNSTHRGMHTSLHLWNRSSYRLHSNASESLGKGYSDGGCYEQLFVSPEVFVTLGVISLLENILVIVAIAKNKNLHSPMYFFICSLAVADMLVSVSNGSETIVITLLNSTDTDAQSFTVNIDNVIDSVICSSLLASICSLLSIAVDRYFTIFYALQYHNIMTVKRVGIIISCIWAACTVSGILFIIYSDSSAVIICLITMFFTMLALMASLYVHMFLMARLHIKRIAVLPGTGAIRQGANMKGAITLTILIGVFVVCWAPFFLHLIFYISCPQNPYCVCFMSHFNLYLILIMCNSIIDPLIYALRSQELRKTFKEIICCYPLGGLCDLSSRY

[2] = target: T2, Melanocyte-stimulating hormone receptor (Homo sapiens, UniProt Q01726); test: Binding affinity in competition with [125I]NDP-MSH on recombinant melanocortin 1 receptor
T2 sequence (Q01726 whole entry): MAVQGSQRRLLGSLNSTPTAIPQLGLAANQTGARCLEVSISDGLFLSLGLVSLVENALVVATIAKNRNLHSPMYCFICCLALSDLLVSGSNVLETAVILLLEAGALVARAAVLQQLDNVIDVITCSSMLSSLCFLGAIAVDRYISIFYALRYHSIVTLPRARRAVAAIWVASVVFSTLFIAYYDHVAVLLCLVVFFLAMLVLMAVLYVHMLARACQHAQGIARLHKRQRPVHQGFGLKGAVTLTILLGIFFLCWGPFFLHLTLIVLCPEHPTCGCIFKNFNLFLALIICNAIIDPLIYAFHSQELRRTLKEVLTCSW

[3] = target: T2, Melanocyte-stimulating hormone receptor; test: Tested for its binding affinity in competition with [125I]NDP-MSH on recombinant human Melanocortin 1 receptor; nb = no binding
Melanocortin receptor 5 [4] = target: T1, Melanocortin receptor 5; test: Tested for its binding affinity in competition with [125I]NDP-MSH on recombinant Melanocortin 5 receptor; nb = no binding

T1 sequence (P33032 whole entry): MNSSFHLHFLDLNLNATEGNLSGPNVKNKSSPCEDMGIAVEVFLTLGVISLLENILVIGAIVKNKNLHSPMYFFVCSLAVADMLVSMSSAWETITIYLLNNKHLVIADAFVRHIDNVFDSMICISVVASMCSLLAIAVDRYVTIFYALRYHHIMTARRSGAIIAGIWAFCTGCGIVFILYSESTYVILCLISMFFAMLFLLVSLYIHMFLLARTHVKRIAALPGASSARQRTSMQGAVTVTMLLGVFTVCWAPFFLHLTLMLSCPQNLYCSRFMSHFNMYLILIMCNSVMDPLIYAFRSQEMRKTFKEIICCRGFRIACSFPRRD

SMILES	Ki (Melanocortin receptor 5 [1])	Ki (Melanocortin receptor 3)	Ki (Melanocortin receptor 4)	Ki [2]	Ki [3]	Ki (Melanocortin receptor 5 [4])
NC(=O)[C@H](Cc1c[nH]c2ccccc12)NCc1ccc2ccccc2c1	42 µM	56 µM	139 µM	8.7 µM	–	–
COc1ccc(CN[C@H](CCCNC(=N)N)C(=O)O)c(Cl)c1OC	> 1 µM	> 1 µM	> 1 µM	> 1 µM	–	–
N=C(N)NCCC[C@H](NCc1ccc2ccccc2c1)C(=O)N[C@@H](Cc1c[nH]c2ccccc12)C(N)=O	74 µM	107 µM	105 µM	29 µM	–	–
COc1ccc(CNC(CCCN=C(N)N)C(=O)O)cc1OC (centres undefined)	> 1 µM	> 1 µM	> 1 µM	> 1 µM	–	–
N=C(N)NCCC[C@H](NCc1c[nH]c2ccccc12)C(=O)N[C@@H](Cc1c[nH]c2ccccc12)C(N)=O	184 µM	> 1000 µM	205 µM	> 1000 µM	–	–
COc1ccc(CN[C@H](CCCNC(=N)N)C(=O)O)cc1OC	> 1 µM	> 1 µM	> 1 µM	> 1 µM	–	–
NC(=O)[C@@H](Cc1c[nH]c2ccccc12)NCc1ccc2ccccc2c1	37 µM	53 µM	64 µM	15 µM	–	–
N=C(N)NCCC[C@H](NCc1ccc2ccccc2c1)C(=O)Nc1ccc2ccccc2c1	6.6 µM	14 µM	14 µM	2.9 µM	–	–
O=C(NCc1ccc2ccccc2c1)[C@H]1CCCN1CCc1c[nH]c2ccccc12	–	752 µM	166 µM	–	Not Active	Not Active
COc1ccc(CN[C@@H](CCCN=C(N)N)C(N)=O)cc1OC	> 1 µM	> 1 µM	> 1 µM	> 1 µM	–	–
N=C(N)NCCC[C@H](NCc1c[nH]c2ccccc12)C(N)=O	> 1 µM	> 1 µM	> 1 µM	> 1 µM	–	–
N=C(N)NCCC[C@@H](NCc1ccc2ccccc2c1)C(=O)N[C@@H](Cc1c[nH]c2ccccc12)C(N)=O	56 µM	147 µM	56 µM	32 µM	–	–
NC(N)=NCCC[C@@H](NCc1c[nH]c2ccccc12)C(=O)O	> 1 µM	> 1 µM	> 1 µM	> 1 µM	–	–
C=CCOC(=O)[C@H](CCCNC(=N)N)NCc1ccc2ccccc2c1	15 µM	28 µM	15 µM	5.9 µM	–	–

Second part, led by results:

Ki (Melanocortin receptor 5 [1])	Ki (Melanocortin receptor 3)	Ki (Melanocortin receptor 4)	Ki [2]	SMILES	Ki [3]	Ki (Melanocortin receptor 5 [4])
> 1 µM	> 1 µM	> 1 µM	> 1 µM	COc1ccc(CN[C@@H](CCCNC(=N)N)C(N)=O)c(Cl)c1OC	–	–
50 µM	161 µM	150 µM	–	O=C(NCCc1c[nH]cn1)[C@@H]1C[C@H](O)CN1Cc1ccc2ccccc2c1	Not Active	–
> 1 µM	> 1 µM	> 1 µM	> 1 µM	N=C(N)NCCC[C@@H](NCc1c[nH]c2ccccc12)C(N)=O	–	–
125 µM	> 1000 µM	> 1000 µM	> 1000 µM	N=C(N)NCCC[C@@H](NCc1ccc2ccccc2c1)C(N)=O	–	–
> 1 µM	> 1 µM	> 1 µM	> 1 µM	NC(N)=NCCCC(NCc1c[nH]c2ccccc12)C(=O)O (centres undefined)	–	–
> 1 µM	> 1 µM	> 1 µM	> 1 µM	N=C(N)NCCC[C@H](NCc1ccc2ccccc2c1)C(N)=O	–	–
130 µM	155 µM	134 µM	> 1000 µM	N=C(N)NCCC[C@H](NCC1CCc2ccccc2C1)C(N)=O (some centres undefined)	–	–
8.7 µM	6.4 µM	6.8 µM	1.3 µM	N=C(N)NCCC[C@H](NCc1ccc2ccccc2c1)C(=O)Nc1cccc2ccccc12	–	–
60 µM	> 1000 µM	> 1000 µM	26 µM	NC(=O)[C@H](Cc1ccc2ccccc2c1)NCc1c[nH]c2ccccc12	–	–
95 µM	> 1000 µM	> 1000 µM	74 µM	NC(=O)[C@@H](Cc1ccc2ccccc2c1)NCc1c[nH]c2ccccc12	–	–
–	4.8 µM	30 µM	4.5 µM	N=C(N)NCCCNC(=O)[C@H](CCCN=C(N)N)NCc1ccc2ccccc2c1	–	Not Active
221 µM	82 µM	279 µM	2.9 µM	NC(N)=NCCCNC(=O)[C@@H]1C[C@H](O)CN1Cc1ccc2ccccc2c1	–	–
